Drawing on a melting point compilation (Tetko et al.; mined from patent text by program, amines drawn as free bases though some values may be those of a salt), this text covers melting point for 90 compounds.

Structures are written as SMILES.

What is called melting point is the temperature of the solid-liquid transition. As to `CCCCCCCCCC(=O)Nc1ccc(S(=O)(=O)Nc2nnc(S(N)(=O)=O)s2)cc1`, the melting point lay within 242 to 243 °C.

In turn, `O=C(OC[C@@H]1CC(c2ccc(-c3ccc(N4C[C@H](Cn5ccnn5)OC4=O)cc3F)cn2)=NO1)c1cnccn1` displayed a melting point of 205 to 226 °C.

In the case of `CC(C)c1cc(C(C)C)c2c(c1)C1(N)C(=O)c3ccccc3C1(O)O2` (stereo not given), the melting point is 199 to 200 °C.

For `C=C(C)C(=O)Nc1ccc(O)c(-n2nc3ccc(OC)cc3n2)c1`, the melting point is 199 to 201 °C.

Compound `O=CN1CCC23CC(=O)CCC2C1Cc1cccc(O)c13` (stereo not given) gave a melting point of 260 to 262 °C.

In turn, `CC(=O)OC1CC(C)(C)N(OC(=NC2CCCCC2)N(C(C)=O)C2CCCCC2)C(C)(C)C1` gave a melting point of 125 to 130 °C.

`CC1=CC(c2cccc(F)c2)C2=C(CCCC2=O)N1` (stereo not given): the melting point was 216 to 218 °C.

Turning to `NCCc1c[nH]c2ccc(NC(N)=O)cc12`, the melting point lay within 188 to 190 °C.

On to `COc1cc(OCc2ccccc2)c(C23CC4CC(CC(C4)C2)C3)cc1Br`, for which the melting point lay within 124 to 126 °C.

With `CCCCCCCCCCCCC1=C(O)C(=O)c2ccccc2C1=O`, the melting point is 85 to 87 °C.

As to `CCCc1ccc(C2c3c(C)c(N)c(C)c(C)c3OC2(C)C)cc1` (stereo not given), the melting point fell in the range of 68 to 69 °C.

As for `CCOCCNc1ncc(Cc2cc(OC)c(OC)c(OC)c2)c(N)n1`, the melting point was 147 °C.

With `O=C(O)c1cc(NCc2ccccc2)c(Nc2ccccc2)c(S(=O)(=O)Nc2ccccc2)c1`, the melting point is 243 °C.

Turning to `C#CC(C)N(C)C(=O)Nc1ccc(Oc2cccc(Cl)n2)cc1` (stereo not given), the melting point was in the range of 140 to 142 °C.

`CCCCOCCOc1ccc(-c2ccc(N(C)CCC)c(C=CC(=O)O)c2)cc1` yielded a melting point of 95 to 97 °C.

The compound `CC(C)(CO)Nc1nc(-c2cccc(C#N)c2)cs1` returned a melting point of 124 to 126 °C.

Compound `OCC1OC(n2cnc3c(Nn4cccc4)ncnc32)C(O)C1O` (stereo not given) displayed a melting point of 193 to 195 °C.

Consider `CC(C)(C)OC(=O)NC1CCN(CC(=O)O)C1=O` (stereo not given), for which the melting point fell in the range of 62 to 64 °C.

As for `CN1C(=O)CC[C@]2(C)c3ccc(NC(=O)c4ccc([N+](=O)[O-])cc4)cc3CC[C@@H]12`, the melting point is 269 to 270 °C.

The compound `Cc1ccc2c(c1)Oc1ccc([N+](=O)[O-])cc1C(=O)N2` showed a melting point of 264 to 266 °C.

For `COC(=O)c1c(C)c([N+](=O)[O-])cc2nc(Cl)c(Cl)nc12`, the melting point fell in the range of 155 to 157 °C.

With `COc1cc2c(Nc3cccc(C)c3)ncnc2cc1OC(C)C`, the melting point was 218 to 221 °C.

As for `Clc1ccc([C@@]2(Cn3ccnc3)OC[C@H](COc3ccc4c(c3)CCN(CCCc3ccc(-c5ccccc5)cc3)C4)O2)c(Cl)c1` (racemic), the melting point is 125 to 127 °C.

For `COc1cc(OC)cc(C(=O)NCC23CC4CC(CC(C4)C2)C3)c1`, the melting point is 130 to 133 °C.

Compound `COc1ccc(C(O)CN)cc1OC` (stereo not given) registered a melting point of 80 to 81 °C.

For the compound `Cn1cc(OS(C)(=O)=O)c(=O)c2ccc(Cl)cc21`, the melting point lay in the range of 157 to 158 °C.

Regarding `Cc1nc2ccc(S(=O)(=O)c3cccc4cnccc34)cc2nc1C`, the melting point is 198 to 200 °C.

Take `COc1nccc2c1ccn2-c1ccc(C(F)(F)F)cc1Cl`: the melting point lay within 112 to 115 °C.

The compound `CCC(O)(Cn1cncn1)C(c1ccc(Cl)cc1)n1cncn1` (stereo not given) displayed a melting point of 60 to 64 °C.

`C=C1CC(Cn2cc(C)c(=O)[nH]c2=O)(c2ccc(Cl)cc2)OC1=O` (stereo not given) gave a melting point of 188 to 189 °C.

As for `O=C(NCc1ccccc1N1CCOCC1)c1ccn2nc(-c3ccccc3)cc2n1`, the melting point lay in the range of 190 to 192 °C.

Compound `Cc1nc2cc(NC(=O)c3cc4cc(C(F)(F)F)cnc4n3Cc3cccc(F)c3)ccc2n1C` showed a melting point of 263 to 265 °C.

`Cc1ccccc1-c1cc(-n2cncn2)ncc1C(=O)N(C)Cc1cc(C(F)(F)F)cc(C(F)(F)F)c1` registered a melting point of 91 to 93 °C.

As to `CCOC(=O)/C=C/c1cc(-n2ncnn2)cc(C)c1N`, the melting point was in the range of 162 to 165 °C.

`CN1CCC(Oc2ccc(F)cc2C(N)=O)C1` (stereo not given) yielded a melting point of 90 to 93 °C.

Consider `CCc1cc(C(C)=O)c(O)cc1OCCCCCn1cncn1`, for which the melting point worked out at 87 °C.

As for `COc1cc(Nc2nccc(Sc3ccccc3)n2)cc(OC)c1OC`, the melting point turned out to be 110 °C.

For the compound `CC(C)n1c2c(c(-c3ccccc3)nc1=O)CCCCCCCCCC2`, the melting point is 173 to 176 °C.

Consider `CC(C)N1C(=O)NCc2c(-c3ccccc3)cccc21`, for which the melting point was 182 to 183 °C.

In turn, `O=C(Nc1nncs1)c1sc(Nc2ccccc2)c2c1CCc1cnoc1-2` returned a melting point of 227 to 229 °C.

With `CC1(C)COC(C(=O)O)OC1`, the melting point was in the range of 58 to 60 °C.

Take `CCCn1cc2c(C3C(=O)Nc4ccc(Br)cc43)nc(NCCCN3CCOCC3)nc2n1` (stereo not given): the melting point lay within 298 to 303 °C.

`COC(=O)Cc1cc2c(c([N+](=O)[O-])c1)NCC2` gave a melting point of 113 to 115 °C.

As for `CCC(CC)Nc1n[nH]c(=O)c2c1ccn2-c1c(C)cc(C)cc1C`, the melting point lay in the range of 183 to 185 °C.

For the compound `Cc1ccc(-c2nc3ncccc3o2)cc1`, the melting point was in the range of 135 to 136 °C.

Regarding `CN(C)C=C(C#N)C(=O)Nc1cc(F)ccc1F`, the melting point was in the range of 175 to 176 °C.

Take `O=C(O)c1cn(-c2ccc(F)c(O)c2)c2c(Cl)c(F)c(F)cc2c1=O`: the melting point was more than 280 °C.

`CSc1ccc2nc[nH]c(=O)c2c1` yielded a melting point of 203 to 204 °C.

`O=C(Nc1cc(C(F)(F)F)on1)C(Cl)(Cl)Cl` gave a melting point of 114 °C.

As for `COc1c(C)c(N2CCN(c3ccc(C)cc3)CC2)c(C)c2c1OC(C)C2` (stereo not given), the melting point was in the range of 82 to 84 °C.

With `CN(C)CCCN=C1CC(c2ccc(C(F)(F)F)cc2)Cc2c1c(=O)c1cc(Cl)ccc1n2O` (stereo not given), the melting point was in the range of 130 to 135 °C.

Compound `CCOC(=O)c1c(Nc2ccc(F)cc2[N+](=O)[O-])nn(C)c1C` yielded a melting point of 174 °C.

In the case of `CC(=O)OCC(OC(C)=O)c1nc2c(C(F)(F)F)cccc2c(O)c1C(=O)Nc1nccs1` (stereo not given), the melting point was 270 °C.

In the case of `Nc1noc(C23CCCN(C2)C3)n1`, the melting point is 167 to 170 °C.

On to `CCN(C(=O)C(C)n1c(=O)n(C)c2nc(-c3ccccc3)ncc21)c1ccccc1` (stereo not given), for which the melting point fell in the range of 150 to 151 °C.

In turn, `CN(C(CCn1c(=O)cc(Cl)n(C)c1=O)C(=O)O)S(=O)(=O)c1ccc(Oc2ccccc2)cc1` (stereo not given) had a melting point of 115 to 117 °C.

In turn, `CC(C#CCOc1cccc(Oc2cccnc2)c1)N(O)C(N)=O` (stereo not given) yielded a melting point of 131 to 132 °C.

Compound `O=C(O)C1CC1c1cc(=O)c2cc(-c3ccccc3)ccc2o1` (stereo not given) displayed a melting point of 226 to 228 °C.

The compound `CCCCCCCOc1ccc(CNc2ccc(C(=O)OCC)cc2)cc1` showed a melting point of 111 to 113 °C.

In the case of `O=C1c2cc(F)ccc2OCC1C(=O)C(F)(F)F` (stereo not given), the melting point lay within 107 to 112 °C.

As for `O=Cc1ccc(-c2cnco2)[nH]1`, the melting point was 152 to 153 °C.

In turn, `O=C1NC(=O)C(=Cc2cc(O)c(O)c([N+](=O)[O-])c2)N1` returned a melting point of more than 350 °C.

`CCOC(=O)c1c(C(F)(F)F)nc(C(F)(F)Cl)c(C(=O)OC)c1NN(C)C` gave a melting point of 97 to 98 °C.

Compound `CC1=C(C(=O)NC(C)(C)C)C(c2ccccc2Cl)C(C(=O)O)=C(COCCn2c(C)nc3ccccc32)N1` (stereo not given) displayed a melting point of 187 to 188 °C.

Consider `O=[N+]([O-])c1ccc(C2SCCCS2)c(CO)c1`, for which the melting point lay within 130 to 131 °C.

Take `CCOC(=O)C=Cc1ccc(OCCN(C)c2ccccn2)cc1`: the melting point was 80 to 81 °C.

As to `COc1ccc(OC)c2c(Nc3cccc(Br)c3)c(C#N)cnc12`, the melting point lay in the range of 72 to 74 °C.

Compound `CC(C)n1c(CC[C@@H](O)C[C@@H](O)CC(=O)O)c(-c2ccc(F)cc2)c(-c2ccc(F)cc2)c1C(=O)NCc1ccc(C(=O)O)cc1` showed a melting point of 140 to 142 °C.

With `CCCCCCCCSC(CCCCC)CCn1ccnc1` (stereo not given), the melting point is 105 to 108 °C.

`CC(C)(O)c1ccc(C2CCNCC2)c(F)c1`: the melting point amounted to 151 °C.

Compound `CCCCCCOc1ccc2cc(C(C)C(=O)O)ccc2c1` (stereo not given) displayed a melting point of 88 to 91 °C.

The compound `CCCCOc1cc(/C=C/C(=O)NS(=O)(=O)CCC(C)C)n(Cc2ccc(Cl)cc2Cl)n1` yielded a melting point of 119 to 120 °C.

As for `COc1ccc(NC(=O)C2C(=O)N(C)C(=S)N(C)C2=O)cc1Oc1ccc(C(F)(F)F)cc1Cl`, the melting point fell in the range of 165 to 168 °C.

Compound `CCCOC(=O)c1ccc(C(=O)NNC(=O)c2ccc(C(=O)OCCC)cc2)cc1` displayed a melting point of 173 to 175 °C.

Take `COCCOc1ccc(CCCOc2cc(CCC(=O)O)n(C)n2)c(OCc2ccc(Cl)cc2Cl)c1`: the melting point fell in the range of 128 to 130 °C.

Consider `C=CCC(O)c1ccc2ccccc2c1` (stereo not given), for which the melting point lay in the range of 35 to 39 °C.

With `CCCCCCCCNC(=O)C1CC1c1ccc(N2CC(C(=O)O)CC2=O)cc1` (stereo not given), the melting point turned out to be 214 °C.

`CCOCc1nc2cnc3cc(Br)ccc3c2n1C[C@@H]1COC(C)(C)O1` came in with a melting point of 90 to 91 °C.

`CC1(C)CCC(N)=CC1=O`: the melting point lay within 153 to 154 °C.

Compound `OC1c2ccccc2COc2ccc(-c3nnn[nH]3)cc21` (stereo not given) displayed a melting point of 335 °C.

Compound `O=C(NC1CCCC1)c1ccc(S(=O)(=O)Cl)cc1` gave a melting point of 143 °C.

Compound `O=C(O)c1cc2c3ccccc3n(Cc3ccccc3)c2s1` registered a melting point of 194 to 195 °C.

As for `CCC(C)C(=O)Nc1c(C(O)(C(F)(F)F)C(F)(F)F)ccc2ccccc12` (stereo not given), the melting point was in the range of 167 to 168 °C.

For `COC(=O)CCc1cc(C(C)(C)C)c2oc(-c3ccc(-c4nc5cc(CCC(=O)OC)cc(C(C)(C)C)c5o4)s3)nc2c1`, the melting point was in the range of 144 to 145 °C.

Take `Cc1ccc(Cc2nc3cc(Cl)c(S(N)(=O)=O)cc3[nH]2)cc1`: the melting point is 214 to 217 °C.

`CCc1oc2ccccc2c1C(=O)NCc1ccc2c(Br)c(OCc3nnn[nH]3)ccc2c1` came in with a melting point of 235 to 238 °C.

`CCCCOC(=O)C1CC2CC(CP(=O)(O)O)CCC2CN1` (stereo not given) showed a melting point of 161 to 169 °C.

`Cc1nn(-c2cc(N)c(Cl)cc2F)c(Cl)c1Br` yielded a melting point of 113 to 116 °C.

`C=CCN(CCC)C1COc2cccc(O)c2C1` (stereo not given) showed a melting point of 78 to 80 °C.

Compound `CCc1cc(C)c(Br)c(CC)c1-c1c(O)c(C)nn(C)c1=O` registered a melting point of 235 to 236 °C.
